No end group written: not given here.
Assays:
[1] = system: HLA-A2+ normal human primary cells
Text: After elution, dissociation, filtration, and cleanup, peptides were lyophilized before further analysis. Transition parameters for each epitope peptide were examined and curated through Valid-NEO method builder bioinformatic pipeline to exclude ions with excessive noise due to coelution with impurities and to boost up the detectability through recursive optimizations of significant ions.

[2] = system: CD8+ naive T cells; test: PBMCs priming assay on HLA-A*02:01 healthy donors with dextramer analysis; format: cell-based, human

presentation of epitope at the cell surface (MS transitions) [1]	Sequence	donors in which priming of peptide specific CD8+ T cells was identified ([2]; 12 different donors, FIG. 2B) [donors]	dextramer positive CD8+ T cells ([2]; after 12 days priming with peptide pulsed MoDCs, FIG. 2A) [%]
not presented by normal cells	LLLEATANL [PR3]	–	–
–	SLTDLYLRI [PR5]	2	0.068
